Data reported in patent publication US5493024A, “3,4,N-trisubstituted-4,5-dihydro-1H-pyrazole-1-carboxamides and their use as insectioides” (DowElanco, priority 1993, dated 1996).
In brackets after ≈: the same amount, converted by molar mass.

Columns and labels:
tobacco budworm [1] = test: Effect on tobacco budworm, contact test (treated Teflon discs); assay type: in vivo, H. virescens (tobacco budworm); conditions: Heliothis virescens, 144 h; second-instar larvae, sprayed Teflon discs 24 hours, then 5 more days on untreated leaf, 25° C; read-out: TOBACCO BUDWORM Contact Test LC50, ppm
Description: (§1) Effect on Tobacco Budworm and Beet Armyworm by Contact.
(§2) Stock solutions of the compounds to be tested having a known concentration were prepared by dissolving weighed amounts in a 90:10 mixture of high-purity acetone and ethanol and these solutions were diluted with distilled water (containing 0.05 percent by weight Tween 20™ surfactant) to obtain the spray solutions of known concentration employed. Teflon™ discs 5 cm in diameter were placed in plastic petri dishes of slightly larger diameter and these dishes were sprayed by means of a track sprayer applying 0.104 mL of spray solution per cup. The Teflon™ discs were allowed to dry, a single second-instar H. virescens (tobacco budworm) or S. exigua (beet armyworm) larva was placed on each Teflon™ disc, and each disc was capped with a plastic lid. Ten Teflon™ discs were prepared for each application rate and five application rates were usually run. Treated discs were stored for 24 hours at 25° C. and then the Teflon™ disc was removed and replaced with an untreated cotton leaf disc. After 5 more days of storage at 25 ° C. the dishes were graded for mortality. Untreated controls and positive controls (cypermethrin) were run simultaneously. The amount of test chemical required to kill half of the larvae (LD50) was calculated.

[2] = test system: Blattella germanica nymphs; test: Effect on cockroaches, ingestion test (treated corn meal); assay type: in vivo; conditions: 504 h, after 21 days, 27° C, read-out: percent control, ingestion test; for mortality at 12.5 ppm: 12.5 ppm solution; for mortality at 50 ppm: 50 ppm solution; for mortality at 200 ppm: 200 ppm solution
Description: (§3) Two hundred ppm stock solutions of the compounds to be tested were prepared by dissolving 2.4 milligrams (mg) of each test compound in 12 mL of acetone; four lower concentration solutions were prepared by serial dilution using 3 mL of solution. A 0.5 mL portion of each test solution was pipetted onto 0.2 g of yellow corn meal placed in a small test tube cap (Fisher 02-706-33) and the mixture was placed in a fume hood overnight to allow the solvent to evaporate. […] Each cap was then placed in a 9 cm (centimeter) diameter Petri plate along with a 2 dram vial containing a cotton wick and water. A 0.5 mL portion of each test solution was also pipetted into a 20 mL borosilicate glass scintillation vial. The vials were placed on a roller mixer and the acetone was allowed to evaporate while the vials rolled. […] Five late third or early fourth instar Blattella germanica nymphs weighing 0.01-0.04 g were placed in each vial and each Petri plate and covers were applied loosely to allow entry of air. Each Petri plate and vial was held at 27° C., the Petri plates for 21 days and the vials for 7 days. The percent of mortality was read periodically and at the end of the test.

tobacco budworm [3] = test: Effect on tobacco budworm, contact and ingestion test (treated cotton leaf discs); assay type: in vivo, H. virescens (tobacco budworm); conditions: Heliothis virescens, foliar, 120 h; second-instar larvae, sprayed cotton leaf discs, 5 days at 25° C; read-out: TOBACCO BUDWORM Contact and Ingestion Test LC50, ppm
Description: (§4) Effect on Tobacco Budworm and Beet Armyworm by Leaf Ingestion and/or Contact.
(§5) Stock solutions of the compounds to be tested having a known concentration were prepared by dissolving weighed amounts in a 90:10 mixture of high-purity acetone and ethanol and these solutions were diluted with distilled water (containing 0.05 percent by weight Tween 20™ surfactant) to obtain the spray solutions of known concentration employed. Greenhouse-grown cotton leaves of uniform age were cut into 2.5 cm diameter discs and one disc was placed in the bottom of each of a number of 30 mL plastic cups. The cups were then sprayed by means of a track sprayer applying 0.055 mL of spray solution per cup. The leaf discs were allowed to dry and then a single second-instar H. virescens (tobacco budworm) or S. exigua (beet armyworm) larva was added to each cup and each cup was capped with a perforated plastic lid. Ten cups were prepared for each insect species and each application rate and five applications rates were usually run. Treated cups were stored for 5 days at 25° C. and were then graded for mortality. Untreated controls and positive controls (cypermethrin) were run simultaneously. The amount of test chemical required to kill half of the larvae (LD50) was calculated.

beet armyworm [4] = test: Effect on beet armyworm, contact and ingestion test (treated cotton leaf discs); assay type: in vivo, S. exigua (beet armyworm); conditions: Spodoptera exigua, foliar, 120 h; second-instar larvae, sprayed cotton leaf discs, 5 days at 25° C; read-out: BEET ARMYWORM Contact and Ingestion Test LC50, ppm
Description: as §4, §5

beet armyworm [5] = test: Effect on beet armyworm, contact test (treated Teflon discs); assay type: in vivo, S. exigua (beet armyworm); conditions: Spodoptera exigua, 144 h; second-instar larvae, sprayed Teflon discs 24 hours, then 5 more days on untreated leaf, 25° C; read-out: BEET ARMYWORM Contact Test LC50, ppm
Description: as §1, §2

[6] = test system: Blattella germanica nymphs; test: Effect on cockroaches, contact test (treated vials); assay type: in vivo; conditions: 168 h, 50 ppm solution, after 7 days, 27° C, read-out: percent control, contact test
Description: as §3

SMILES | LC50 (tobacco budworm [1]) [µg/mL] | mortality at 12.5 ppm [2] [%] | mortality at 50 ppm [2] [%] | mortality at 200 ppm [2] [%] | LC50 (tobacco budworm [3]) [µg/mL] | LC50 (beet armyworm [4]) [µg/mL] | LC50 (beet armyworm [5]) [µg/mL] | mortality at 50 ppm [6] [%]
O=C(Nc1ccc(OC(F)(F)F)cc1)N1CC(c2ncc(Cl)cn2)C(c2ccc(F)cc2)=N1 (stereo not shown) [T, 4-(5-Chloro-2-pyrimidinyl)-4,5-dihydro-3-(4-fluorophenyl)-N-(4-trifluoromethoxyphenyl)-1H-pyrazole-1-carboxamide] | 7.5 (≈ 15.6 µM) | ~100 | ~100 | 100 | 1.3 (≈ 2.71 µM) | 1.4 (≈ 2.92 µM) | 2.2 (≈ 4.59 µM) | 100
O=C(Nc1ccc(C(F)(F)F)cc1)N1CC(c2ccc(C(F)(F)F)cn2)C(c2ccc(F)cc2)=N1 (stereo not shown) [G, 4,5-Dihydro-3-(4-fluorophenyl)-N-(4-trifluoromethylphenyl)-4-(5-trifluoromethyl-2-pyridinyl)-1H-pyrazole-1-carboxamide] | 8.7 (≈ 17.5 µM) | ~100 | ~100 | 100 | 1.1 (≈ 2.22 µM) | 1 (≈ 2.01 µM) | 5 (≈ 10.1 µM) | 100
